# Experiments:
# maize primary roots [1] = experiment: Proteomic profiling of maize roots with and without auxin treatment; type: in vivo, Zea mays; details: 10 μM IAA
# Protocol: For proteomics analysis, W22 and pils6-1 kernels were surface sterilized and planted in rolled towels as described above. Two days after planting, ungerminated kernels were removed from the assay. Five-day-old seedlings were removed from the rolled towels and floated on 0.5×LS media supplemented with 10 μM IAA in 0.5×LS or an equal volume of 95% ethanol in 0.5×LS for 1 hour. For each biological replicate, total root tissue from 5 seedlings was excised using a scalpel and pooled prior to flash freezing in liquid nitrogen. Three biological replicates were generated per genotype and treatment.
# Proteomics. Protein extraction and peptide generation. Protein extraction and peptide digestion was performed as previously described (Song et al., “Heterotrimeric G-Protein-Dependent Proteome and Phosphoproteome in Unstimulated Arabidopsis Roots,” Proteomics 18: e1800323 (2018), which is hereby incorporated by reference in its entirety). Briefly, total protein was extracted from […] of 5-day-old primary root tissue (W22 and pils6-1) using the phenol-FASP method as previously detailed (Song et al., “Assessment and Refinement of Sample Preparation Methods for Deep and Quantitative Plant Proteome Profiling,” Proteomics 18: e1800220 (2018); Song et al., “Quantitative Profiling of Protein Abundance and Phosphorylation State in Plant Tissues Using Tandem Mass Tags” in Plant Proteomics: Methods and Protocols, Methods in Molecular Biology., J. V. Jorrin-Novo, L. Valledor, M. A. Castillejo, M.-D. Rey, Eds., pp. 147-156 (Springer US, 2020), each of which is hereby incorporated by reference in its entirety). […] Peptide amounts were quantified using the Pierce BCA Protein assay kit […]
# maize primary roots [2] = experiment: Auxin response assay (rolled towel), primary root length; type: in vivo, Zea mays; details: pils6-1 and pils6-3 roots compared to W22 and B73, 10 μM IAA
# Protocol: Auxin response assays were performed using the rolled towel assay as previously described (Draves, “Maize Seedling Growth and Hormone Response Assays Using the Rolled Towel Method,” Current Protocols 2: e562 (2022), which is hereby incorporated by reference in its entirety) using 20-40 biological replicates per genotype and treatment. Maize kernels were surface sterilized with 6% bleach and planted on germination paper and placed vertically in a 2-L beaker with 600 mL of 0.5×Linsmaier and Skoog (LS) media. Seedlings were grown for 3 days after germination (DAG) and then treated with 10 μM indole-3-acetic acid (IAA) or an equal volume 95% ethanol for 7 additional days.
# maize primary roots [3] = experiment: In vivo auxin accumulation assay in dissected primary roots; parameters: species or system Zea mays
# Protocol: In vivo auxin transport assays. Auxin accumulation assays were performed as previously described (Strader and Bartel, “The Arabidopsis PLEIOTROPIC DRUG RESISTANCE8/ABCG36 ATP Binding Cassette Transporter Modulates Sensitivity to the Auxin Precursor Indole-3-Butyric Acid,” The Plant Cell 21:1992-2007 (2009), which is hereby incorporated by reference in its entirety). […] Sections were equilibrated in 40 μL of uptake buffer (20 mM MES, 10 mM sucrose, and 0.5 mM CaSO4, pH 5.6) for 30 minutes at room temperature (RT). 40 μL of 50 nM 3H-IAA was added to each sample and incubated at RT for 1 hour. Samples were rinsed 3 times with […] of uptake buffer. 3H-IAA in tissue samples was measured using a scintillation counter as previously described (Strader and Bartel, “The Arabidopsis PLEIOTROPIC DRUG RESISTANCE8/ABCG36 ATP Binding Cassette Transporter Modulates Sensitivity to the Auxin Precursor Indole-3-Butyric Acid,” The Plant Cell 21:1992-2007 (2009), which is hereby incorporated by reference in its entirety). Samples were moved to scintillation vials containing CytoScint (MP Biomedicals) and disintegrations per minute (DPM) were measured using a scintillation counter (Beckman Coulter LS-6500).
# ZmPILS6 = experiment: Auxin transport assay in yeast expressing ZmPILS6; type: cell-based, Zea mays; details: yeast expressing ZmPILS6 compared to empty vector control
# Protocol: Auxin transport assays in yeast. Transport assays of radiolabeled indole-3-acetic acid (^3H-IAA) were performed as previously described (Michniewicz, et al., “Transporter of IBA1 Links Auxin and Cytokinin to Influence Root Architecture,” Developmental Cell 50:599-609.e4 (2019), which is hereby incorporated by reference in its entirety). Briefly, pCC13 was transformed into Saccharomyces cerevisiae strain JBY575. Single yeast colonies were grown in liquid-URA selective media overnight at 30° C. Yeast were resuspended in 0.1M MES (pH 4.6) with 2% dextrose to an OD600 of 5. 100 μL of resuspended cells were added to a 1.5 mL Eppendorf tube and added 100 μL of 50 nM 3H-IAA and incubated at RT for 30 minutes. Yeast cells were centrifuged for 15 seconds before removing the supernatant and washing 3 times with MES solution. Cells were resuspended in 100 μL of MES buffer and ^3H-IAA was measured using a scintillation counter. For each plasmid expressing yeast, 12 biological replicates were statistically analyzed using a t test.
SMILES,"proteins with altered abundance in response to IAA treatment (maize primary roots [1]; W22 roots, 1 hour) [proteins]",proteins auxin-induced in W22 that are auxin-repressed in pils6-1 (maize primary roots [1]; W22 vs pils6-1 roots) [proteins],"auxin-responsive proteins (maize primary roots [1]; pils6-1 roots, 1 hour) [proteins]",sensitivity of primary root length to exogenous IAA (maize primary roots [2]),3H-IAA accumulation in the elongation zone (maize primary roots [3]; pils6-1 roots (absence of ZmPILS6) compared to W22),3H-IAA accumulation in the stele (maize primary roots [3]; pils6-1 roots compared to W22),3H-IAA accumulation in yeast cells (ZmPILS6)
"O=C(O)Cc1c[nH]c2ccccc12 [IAA, indole-3-acetic acid]",178,11,9,less sensitive,,,
O=C(O)Cc1c[nH]c2ccccc12 [3H-IAA],,,,,hyperaccumulates,hypo-accumulates,significant decrease

# Source: patent US20250270579A1, “PLANTS WITH ALTERED ROOT AND SHOOT ARCHITECTURE AND METHODS FOR OBTAINING AND USING SAME” (IOWA STATE UNIVERSITY RESEARCH FOUNDATION, INC., priority 2024, published 2025)
